Reference: US7446199B2, “Compositions useful as inhibitors of protein kinases” (Vertex Pharmaceuticals Incorporated, priority 2003, dated 2008)
pKi: −log10 of the molar value.

Columns and labels:
[1] = biological target: T1, JAK3 (Homo sapiens, UniProt P52333); assay: JAK3 inhibition assay (ELISA, Poly (Glu, Ala, Tyr) coated plates); format: biochemical; conditions: 2 mM ATP, 60 minutes at 30° C.
T1 sequence (P52333 1-1124): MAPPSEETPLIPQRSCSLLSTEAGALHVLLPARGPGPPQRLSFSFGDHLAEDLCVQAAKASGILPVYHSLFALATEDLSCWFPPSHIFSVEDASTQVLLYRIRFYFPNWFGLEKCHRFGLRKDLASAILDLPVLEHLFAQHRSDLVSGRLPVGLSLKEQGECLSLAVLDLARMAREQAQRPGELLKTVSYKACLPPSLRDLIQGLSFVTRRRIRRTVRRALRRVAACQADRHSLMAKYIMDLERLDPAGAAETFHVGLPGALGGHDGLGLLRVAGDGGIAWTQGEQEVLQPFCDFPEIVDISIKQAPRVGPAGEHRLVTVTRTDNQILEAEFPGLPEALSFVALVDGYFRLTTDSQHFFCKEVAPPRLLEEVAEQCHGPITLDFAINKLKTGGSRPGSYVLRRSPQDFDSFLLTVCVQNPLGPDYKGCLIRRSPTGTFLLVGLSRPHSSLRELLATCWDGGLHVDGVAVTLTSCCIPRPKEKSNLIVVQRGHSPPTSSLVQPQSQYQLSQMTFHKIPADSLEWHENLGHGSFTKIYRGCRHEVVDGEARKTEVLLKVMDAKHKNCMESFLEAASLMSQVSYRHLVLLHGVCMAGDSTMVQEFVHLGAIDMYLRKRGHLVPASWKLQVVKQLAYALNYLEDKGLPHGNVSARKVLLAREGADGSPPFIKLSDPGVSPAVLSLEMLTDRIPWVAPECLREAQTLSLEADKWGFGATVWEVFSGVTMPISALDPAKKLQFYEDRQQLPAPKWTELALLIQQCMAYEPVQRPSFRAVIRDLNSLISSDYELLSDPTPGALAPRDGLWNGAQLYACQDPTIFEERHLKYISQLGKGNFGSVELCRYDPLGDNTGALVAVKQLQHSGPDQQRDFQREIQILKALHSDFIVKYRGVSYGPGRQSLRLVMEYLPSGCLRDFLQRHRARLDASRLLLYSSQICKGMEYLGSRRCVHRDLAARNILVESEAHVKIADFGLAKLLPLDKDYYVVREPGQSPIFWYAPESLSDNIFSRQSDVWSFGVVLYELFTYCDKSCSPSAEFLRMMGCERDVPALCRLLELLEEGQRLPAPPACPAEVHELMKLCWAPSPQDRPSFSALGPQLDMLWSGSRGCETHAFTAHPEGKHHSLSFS
Method in brief: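 ELISA on Poly(Glu,Ala,Tyr) 6:3:1-coated plates with 2 mM ATP and 5 mM MgCl2. JAK enzyme started the reaction, run 60 min at 30° C. Phosphotyrosine was detected with HRP-conjugated 4G10 antibody and TMB, read at 450 nm, and IC50 was derived from optical densities.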

[2] = biological target: T2, c-KIT (Homo sapiens, UniProt P10721); assay: Inhibition of c-KIT, radiometric filter-binding assay; format: biochemical; conditions: 700 μM ATP, 0.5 mg/mL pE4Y, room temperature
T2 construct: 0.02% BSA and 25 nM c-KIT
Method in brief: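 Radiometric filter-binding: 25 nM c-KIT (enzyme in the Solution 2 mix) with poly(Glu,Tyr) 4:1 substrate at 0.5 mg/mL and [γ-^33P]ATP at 700 μM (both final), in HEPES pH 7.5/MgCl2/NaCl/DTT/BSA with 2.5% DMSO. Incubated 20 min at room temperature, stopped with TCA, and ^33P incorporation counted on filters. 12-point titration, final compound typically 0.01-5 μM; IC50 or Ki from curve fit.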

T2 sequence (P10721 26-976): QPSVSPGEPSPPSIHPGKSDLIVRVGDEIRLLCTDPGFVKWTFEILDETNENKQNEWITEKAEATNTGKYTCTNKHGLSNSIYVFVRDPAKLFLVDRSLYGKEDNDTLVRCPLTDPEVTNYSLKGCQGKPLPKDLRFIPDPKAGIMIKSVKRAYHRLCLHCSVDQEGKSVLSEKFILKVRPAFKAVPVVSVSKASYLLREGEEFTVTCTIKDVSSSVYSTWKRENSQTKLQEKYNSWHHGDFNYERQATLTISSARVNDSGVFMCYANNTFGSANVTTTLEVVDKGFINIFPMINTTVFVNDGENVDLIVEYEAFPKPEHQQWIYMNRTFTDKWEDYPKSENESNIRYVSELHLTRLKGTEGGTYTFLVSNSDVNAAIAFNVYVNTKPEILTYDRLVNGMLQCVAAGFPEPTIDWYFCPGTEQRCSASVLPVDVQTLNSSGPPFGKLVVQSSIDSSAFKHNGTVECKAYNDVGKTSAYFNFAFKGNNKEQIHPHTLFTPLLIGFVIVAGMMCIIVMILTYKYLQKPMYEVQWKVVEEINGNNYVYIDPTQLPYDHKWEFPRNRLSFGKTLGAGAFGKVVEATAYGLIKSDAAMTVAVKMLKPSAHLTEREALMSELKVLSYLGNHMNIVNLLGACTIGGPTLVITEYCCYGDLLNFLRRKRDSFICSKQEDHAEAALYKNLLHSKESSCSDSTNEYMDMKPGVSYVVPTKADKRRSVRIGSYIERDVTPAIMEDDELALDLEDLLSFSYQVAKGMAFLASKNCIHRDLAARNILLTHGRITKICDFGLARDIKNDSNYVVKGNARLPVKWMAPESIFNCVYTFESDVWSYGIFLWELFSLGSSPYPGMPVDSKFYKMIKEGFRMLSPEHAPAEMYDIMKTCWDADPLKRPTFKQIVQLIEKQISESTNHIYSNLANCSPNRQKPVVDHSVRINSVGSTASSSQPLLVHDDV

Row | SMILES | pKi [1] | pKi [2]
1 | CN1CCN(C(=O)[C@H]2C[C@@H]2c2cnc3[nH]cc(-c4oncc4-c4cccc(F)c4F)c3c2)CC1 (relative stereo) [Compound 142, trans-(2-{3-[4-(2,3-Difluoro-phenyl)-isoxazol-5-yl]-1H-pyrrolo[2,3-b]pyridin-5-yl}-cyclopropyl)-(4-methyl-piperazin-1-yl)-methanone] | 6.00 to 6.70 | > 6.70
2 | Fc1cccc(-c2cnoc2-c2n[nH]c3ncccc23)c1F [Compound 31, 3-(4-(2,3-difluorophenyl)isoxazol-5-yl)-1H-pyrazolo[3,4-b]pyridine] | 4.90 to 6.00 | 
3 | c1ccc(-c2cnoc2-c2c[nH]c3ncccc23)cc1 [Compound 35, 3-[4-Phenyl-isoxazol-5-yl]-1H-pyrrolo[2,3-b]pyridine] | 6.00 to 6.70 | 
4 | Fc1cc(F)c(F)c(-c2cnoc2-c2c[nH]c3ncccc23)c1 [Compound 39, 3-[4-(2,3,5-Trifluoro-phenyl)-isoxazol-5-yl]-1H-pyrrolo [2,3-b]pyridine] | 6.00 to 6.70 | 
5 | Fc1ccc(F)c(-c2cnoc2-c2c[nH]c3ncccc23)c1F [Compound 41, 3-[4-(2,3,6-Trifluoro-phenyl)-isoxazol-5-yl]-1H-pyrrolo [2,3-b]pyridine] | > 6.70 | 
6 | O=C(c1cnc2[nH]cc(-c3oncc3-c3cccc(F)c3F)c2c1)N1CCCC1 [Compound 104, {3-[4-(2,3-Difluoro-phenyl)-isoxazol-5-yl]-1H-pyrrolo[2,3-b]pyridin-5-yl}-pyrrolidin-1-yl-methanone] | 4.90 to 6.00 | 
7 | COc1cnc2[nH]cc(-c3nncn3-c3cccc(F)c3F)c2c1 [Compound 108, 3-[4-(2,3-Difluoro-phenyl)-4H-[1,2,4]triazol-3-yl]-5-methoxy-1H-pyrrolo[2,3-b]pyridine] | 4.90 to 6.00 | 6.00 to 6.70
8 | Fc1cccc(-n2cnnc2-c2c[nH]c3ncc(-c4ccc(N5CCNCC5)nc4)cc23)c1F [Compound 111, 3-[4-(2,3-Difluoro-phenyl)-4H-[1,2,4]triazol-3-yl]-5-(6-piperazin-1-yl-pyridin-3-yl)-1H-pyrrolo[2,3-b]pyridine] | 4.90 to 6.00 | 6.00 to 6.70
9 | Fc1cccc(-c2cnoc2-c2c[nH]c3ncc(CCn4cncn4)cc23)c1F [Compound 132, 3-[4-(2,3-Difluoro-phenyl)-isoxazol-5-yl]-5-(2-[1,2,4]triazol-1-yl-ethyl)-1H-pyrrolo[2,3-b]pyridine] | 4.90 to 6.00 | 
10 | CN(C)C1CCC(c2cnc3[nH]cc(-c4oncc4-c4cccc(F)c4F)c3c2)CC1 (stereo not drawn) [Compound 141, (4-{3-[4-(2,3-Difluoro-phenyl)-isoxazol-5-yl]-1H-pyrrolo[2,3-b]pyridin-5-yl}-cyclohexyl)-dimethylamine] | 6.00 to 6.70 | > 6.70

Other lines, results leading:

Row | pKi [1] | pKi [2] | SMILES
11 | 4.90 to 6.00 |  | Fc1cccc(-c2cnoc2-c2c[nH]c3ccc(-c4ccncc4)cc23)c1F [Compound 34, 3-[4-(2,3-Difluoro-phenyl)-isoxazol-5-yl]-5-pyridin-4-yl-1H-indole]
12 | 6.00 to 6.70 |  | Fc1cccc(-c2cnoc2-c2c[nH]c3ncc(Cl)cc23)c1F [Compound 44, 3-[4-(2,3-Difluoro-phenyl)-isoxazol-5-yl]-5-chloro-1H-pyrrolo[2,3-b]pyridine]
13 | 4.90 to 6.00 |  | Fc1cnc2[nH]cc(-c3oncc3-c3cccc(F)c3F)c2c1 [Compound 45, 3-[4-(2,3-Difluoro-phenyl)-isoxazol-5-yl]-5-fluoro-1H-pyrrolo[2,3-b]pyridine]
14 | 6.00 to 6.70 | 6.00 to 6.70 | Cc1cnc2[nH]cc(-c3oncc3-c3cccc(F)c3F)c2c1 [Compound 46, 3-[4-(2,3-Difluoro-phenyl)-isoxazol-5-yl]-5-methyl-1H-pyrrolo[2,3-b]pyridine]
15 | 4.90 to 6.00 | 6.00 to 6.70 | OCc1cnc2[nH]cc(-c3oncc3-c3cccc(F)c3F)c2c1 [Compound 55, {3-[4-(2,3-Difluoro-phenyl)-isoxazol-5-yl]-1H-pyrrolo[2,3-b]pyridin-5-yl}-methanol]
16 | 4.90 to 6.00 |  | Fc1cccc(-c2cnoc2-c2c[nH]c3nc(Cl)c(-c4ccncc4)cc23)c1F [Compound 103, 6-Chloro-3-[4-(2,3-difluoro-phenyl)-isoxazol-5-yl]-5-pyridin-4-yl-1H-pyrrolo[2,3-b]pyridine]
17 | > 6.70 | > 6.70 | NC(=O)c1ccc(-c2cnc3[nH]cc(-c4oncc4-c4cccc(F)c4F)c3c2)cc1 [Compound 153]
18 | > 6.70 |  | OB(O)c1cnc2[nH]cc(-c3oncc3-c3cccc(F)c3F)c2c1 [Compound 154]
19 | > 6.70 | > 6.70 | C[N+]1(C)CCN(c2ccc(-c3cnc4[nH]cc(-c5oncc5-c5cccc(F)c5F)c4c3)cc2)CC1 [Compound 155]
